This note sets out measurements from patent EP2487185A1, “Hexapeptide with improved activity in the repair of cellular DNA of dermal cells” (Clinuvel Pharmaceuticals Limited, priority 2011, dated 2012).

Holding throughout (assay type): cell-based, human
In assay [1] the test system is melanocytic strains 1563c and 102b. The assay can be described thus: Ultrastructural visualization of DOPA-stained HM, electron microscopy. The settings on record: 0.1 nM or 1 nM CUV9900 or 1 nM MSH. As to the method: (§1) With reference to Figs. 14 and 15, two melanocytic strains, a lightly pigmented strain 1563c of Fig. 14 and strain 102b of Fig. 15 were plated in 4-well chamber slides and treated […] with either 0.1 nM or 1 nM CUV9900 or 1 nM MSH for a total of 6 days. Cells were processed for electron microscopy in the presence or absence of histochemical reaction with DOPA. Microtome sections were analyzed in a JEOL JEM-1230 transmission electron microscope and photomicrographs (15,000 X) of the perinuclear area and dendrites were taken for each experimental group.

Assay [2] concerns melanocytic strain 1505b and melanocytic strain 10.3c. As to the kind of experiment: UV-induced generation of hydrogen peroxide, luminol luminescence. The settings on record: 1 nM; for UV-induced hydrogen peroxide generation: 105 mJ/cm^2 UV, 0, 30 and 45 minutes after UV irradiation. From the text: (§2) With reference to Figs. 10 and 11, melanocytes were irradiated with a bank of FS 20 lamps, with 75% emission in the UVB, and 25% emission in the UVA spectra, with peak emission at 313 nm wavelength. Any emission of UVC rays from the UV source (FS 20 lamps) was blocked by Kodacel filter. Prior to irradiation, the culture medium was replaced by PBS, which was removed after UV exposure, and fresh medium added.
(§3) Melanocytes were irradiated with 105 mJ/cm^2 UV, and treated immediately while in PBS with 0, 1 nM α-MSH or 1 nM CUV9900. Generation of hydrogen peroxide, representative of reactive oxygen species (ROS), was determined by measuring the luminescence of luminol at 0, 30, and 45 min after UV exposure. Triplicate dishes were included in each group, and duplicate samples from each dish were used for measurement of hydrogen peroxide at each time point. Each data point represents the mean of 6 determinations/group ±S.E.

Assay [3] deals with melanocytes strain 105c. The assay can be described thus: cAMP levels, radioimmunoassay. Particulars: 45 min, 0.1 mM IBMX. As to the method: Dose-response experiments were carried out on three melanocytic strains, namely strains 1513c, 1505b and 105c melanocytes were treated with 1 pM-10 nM CUV9900 or NDP-MSH, or with 0.1-10 nM MSH for 45 minutes in the presence of 0.1 mM isobutyl methylxanthine (IBMX). The results obtained from strain 1513c are shown in Fig. 3, the results obtained from strain 1505b are shown in Fig. 5a and the results obtained from strain 105c are shown in Fig. 5b. The strains 1505b and 1513c were obtained from the same human adult while the strain 105c was obtained from another human adult.
Cyclic AMP is the second messenger for the melanocortin-1 receptor, and assessment is usually performed indicating cellular activity reflective of melanogenesis. Cyclic AMP levels were determined using ^125I-labeled radioimmunoassay kit (Perkin Elmer, Waltham, MA), in human melanocytes that were treated with 0 (control), 0.1-10.0 nM α-MSH, or 0.001-10 nM NDP-MSH or 0.001-10.0 nM CUV 9900 for 45 min. in the presence of 0.1 mM IBMX, a phosphodiesterase inhibitor to prevent cAMP degradation. Triplicate wells were included in each group, and duplicate samples from each well were assayed for cAMP levels. Each data point is the mean percent of control of 6 determinations/group ±S.E.

Assay [4] concerns melanocytic strain 10.3c. As to the kind of experiment: UV-induced generation of hydrogen peroxide (luminol luminescence). Particulars: 1 nM, 105 mJ/cm^2 UV, 0, 30 and 45 minutes after UV.
Excerpt: as §2, §3

The subject of assay [5] is melanocytic strain 1505b. Described as above. Particulars: strain 1505b; 1 nM; 105 mJ/cm^2 UV; 0, 30 and 45 minutes after UV.
Excerpt: as §2, §3

The test system of assay [6] is melanocyte strain 1513c. As to the kind of experiment: Tyrosinase activity as a measure of stability / residual effect. The settings on record: strain 1513c; 1 nM peptide incubated 5-7 hours at 37 degrees Celsius. As to the method:
To determine the residual effect of CUV9900, as compared to NDP-MSH and α-MSH, on tyrosinase activity, melanocytes were treated with either CUV9900 or NDP-MSH at the concentrations previously described for a total of 3 days. Tyrosinase activity was measured at the end of the 3 days of treatment, and 2 and 4 days after maintenance of the melanocytes in the complete absence of any treatment. With continued reference to Figs. 7, 8 and 9, to determine the stability of CUV9900 versus that of NDP-MSH and α-MSH, melanocytes were treated with 1 nM of each peptide, namely with CUV9900, NDP-MSH and α-MSH, for a total of 6 days, or with 1 nM peptides that were incubated for 5 hours at 37 °C prior to addition to the cultures, every other day, for a total of 6 days. Tyrosinase activity was measured at the end of treatment. In the experiments, cell number represents the mean percent of control of 3 determinations/ group ±SE, and tyrosinase activity data represent the mean percent of control of 6 determinations ±S.E. It should be noted that for the sake of reproducibility the experiment of strain 1513c of Fig. 9 was performed once more 6 months later than the experiment of Fig. 7. […] Melanocytes were treated for 3 days with the designated concentrations of CUV9900, NDP-MSH, or MSH, then maintained in absence of peptides for 4 days. Tyrosinase activity was determined 3 days after treatment. Comparison of stability of CUV9900, NDP-MSH and MSH was compared in 1513c, as shown in Fig. 7; the strain was treated for 6 days with 1 nM CUV9900, NDP-MSH or MSH with fresh medium and peptide replenished every 2 days. Melanocytes were treated according to the same experiment protocol but each peptide was incubated for 5-7 hours at 37 degrees Celsius. […] The assessment of tyrosinase was statistically different from control, as determined by ANOVA (p=<0.05).

The test system of assay [7] is lightly pigmented strain 1563c and strain 102b. As to the kind of experiment: Ultrastructural visualization of DOPA-stained HM (electron microscopy). Particulars: 0.1 nM or 1 nM CUV9900 or 1 nM MSH; strains 1563c and 102b. The protocol: as §1

Non-standard residues stand in square brackets, D forms with d. Nle = CCCC[C@H](N)C(=O)O

For “Ac-Ser-Tyr-Ser-Met-Glu-His-Phe-Arg-Trp-Gly-Lys-Pro-Val-NH2 (SEQ ID NO: 3) [alpha-MSH, reference compound]”, the “melanosomes in the perinuclear area and dendrites” value in assay [1] is given as “increased mature (stage IV) melanosomes”. The “UV-induced hydrogen peroxide generation” value in assay [2] is given as “significant reduction”.
For “Ac-Nle-Glu His-D-Phe-Arg-Trp-NH2 (SEQ ID NO: 1) (Ac-[Nle]EH[dF]RW-NH2; SMILES CCCC[C@H](NC(C)=O)C(=O)N[C@@H](CCC(=O)O)C(=O)N[C@@H](Cc1c[nH]cn1)C(=O)N[C@H](Cc1ccccc1)C(=O)N[C@@H](CCCNC(=N)N)C(=O)N[C@@H](Cc1c[nH]c2ccccc12)C(N)=O) [CUV9900]”, the “elevation of cAMP in comparison to NDP” value in assay [3] (0.01 nM and 0.1 nM) is recorded as “less elevation of cAMP”. For the same substance, in assay [3] (0.1 nM, 1 nM and 10 nM), the “cAMP compared with MSH” value is on record as “significantly higher”. For the same substance, the “melanosomes in the perinuclear area and dendrites” value in assay [1] was “increased mature (stage IV) melanosomes”. Besides, the “UV-induced hydrogen peroxide generation” value in assay [2] is on record as “significant reduction”. In addition, in assay [2] (at 45 minutes after irradiation), the “hydrogen peroxide generation in comparison with both NDP-MSH and MSH” value is on record as “lower hydrogen peroxide generation”.
On to “Ac-Ser-Tyr-Ser-Met-Glu-His-Phe-Arg-Trp-Gly-Lys-Pro-Val-NH2 [alpha-MSH, reference compound]”, for which the “UV-induced hydrogen peroxide generation” value in assay [4] and in assay [5] was “significant reduction of UV-induced hydrogen peroxide generation” throughout. In addition, in assay [6], the “effect of incubation of the peptide on stimulation of tyrosinase activity” value is listed as “totally abolished its effect on tyrosinase activity”. Also, the “melanosomes, electron microscopy” value in assay [7] is “increased mature (stage IV) melanosomes in the perinuclear area and more so in dendrites”.
